{"source": "patent US12138254B2", "about": "“Chronic nightly dosing of lasmiditan for migraine prevention” (Eli Lilly and Company, priority 2018, dated 2024)", "key": {"patients with migraine": {"system": "patients with migraine", "experiment": "Phase 3 studies SAMURAI and SPARTAN, lasmiditan vs placebo for acute treatment of migraine", "type": "in vivo, human", "source_text": "Prior clinical development studies of lasmiditan have employed acute on-demand treatment regimens to relieve migraine pain and symptoms and treat migraine. […] From this analysis, the authors concluded the primary and key secondary endpoints were met and safety outcomes were consistent across the two Phase 3 studies. Thus, acute on-demand use of lasmiditan provides effective treatment for a substantial population of migraine patients, however some patients may continue to have attacks and improved methods of treating and/or preventing these attacks represent an important therapeutic goal.\nThe placebo-controlled Phase 3 studies SAMURAI (NCT02439320) and SPARTAN (NCT02605174) evaluated lasmiditan 50 mg [SPARTAN only], 100 mg and 200 mg. […] GLADIATOR (NCT02565186) is a prospective randomized open-label Phase 3 study to evaluate long-term intermittent use of lasmiditan (100 mg or 200 mg) for acute treatment of migraine. An interim analysis of the effects of lasmiditan on migraine disability assessed with the MIDAS scale in GLADIATOR is described below, and has provided surprising and unexpected evidence of persistent beneficial effects in migraine patients."}, "[1]": {"experiment": "Unbound plasma and brain levels of lasmiditan in rats from dural PPE studies", "type": "in vivo, Sprague-Dawley rats", "settings": "rat; for concentration at 1 h / concentration at 24 h: male, Sprague-Dawley; for concentration at 1 h: 1 hr post-dose; for concentration at 24 h: 24 hrs post-dose", "description": "Lasmiditan-hemisuccinate is dissolved in sterile water. All doses of lasmiditan are reported as free base equivalent doses, accounting for the weight of the salt. Envigo Sprague-Dawley, Sprague-Dawley male rats (250-350 grams, n=4/group) are fasted overnight prior to dosing. The animals are orally gavaged (2 mL/kg dose volume) with test compound or vehicle one hour prior to stimulation time and returned to their cages with only water available. Approximately 50 minutes post-dosing, the rats are anesthetized with Nembutal (65 mg/kg, ip.) and implanted with stainless steel stimulating electrodes (Rhodes Medical Systems, Inc.) to a depth of 9.2 mm. from the dura. The femoral vein is exposed and fluorescein isothiocyanate-labeled bovine serum albumin (FITC-BSA) (20 mg/kg, iv.), is injected into the femoral vein 2 minutes prior to stimulation. The FITC-BSA functions as a marker for protein extravasation. The left trigeminal ganglion is stimulated for 5 minutes at a current intensity of 1.0 mA (5 Hz, 5 msec pulse duration) with a Model S48 Grass Instrument Stimulator with PSIU6 photoelectric isolation unit (Grass-Telefactor). Five minutes following stimulation, a blood sample is collected by cardiac puncture and the rats are sacrificed by exsanguination with 40 ml of saline. One milliliter of blood is collected and placed in a 1.5 ml EDTA coated tube (Fisher Cat. #540734) on ice. Plasma is separated via centrifugation at 10,000 rpm (941 g) for thirty minutes at 4° C. The top of the skull is removed to collect the brain and dural membranes. The brain and plasma samples are frozen at −80° C. until thawed for compound quantification. The membrane samples are removed from both hemispheres, rinsed with water, and spread flat on microscope slides. The slides are dried for 15 minutes on a slide warmer, then the tissues are cover-slipped with a 70% glycerol/water solution. A fluorescence microscope (Zeiss) equipped with a grating monochromator and a spectrophotometer is used to quantify the amount of FITC-BSA dye in each dural sample. The extravasation induced by electrical stimulation of the trigeminal ganglion is an ipsilateral effect (i.e. occurs only on the side of the dura in which the trigeminal ganglion was stimulated). This allows the other (unstimulated) half of the dura to be used as the control. The ratio of extravasation in the dura from the stimulated side versus the unstimulated side is calculated and reported as the extravasation ratio for each animal. The mean extravasation ratio and standard error of the mean (SEM) are calculated for each treatment group. Controls yield a ratio of approximately 1.8. In contrast, a compound which effectively prevents the extravasation in the dura from the stimulated side would have a ratio of approximately 1. The resulting data are analyzed with a one-way ANOVA followed by Dunnett's post hoc to determine statistical significance (p<0.05). Levels of compound in the plasma and brain samples for each animal are analyzed according to methods known to the skilled artisan. Evaluation of Compound Potency 24 or 48 Hours Following Oral Administration Envigo Sprague-Dawley, Sprague-Dawley male rats (250-350 grams, n=4/group) are fasted overnight prior to dosing for the duration p.o. study. The animals are orally gavaged with test compound or vehicle and returned to their cages with only water available; with food returned 1 hour later. Either 24 or 48 post-dose, the animals are anesthetized with Nembutal (65 mg/kg, ip.) and placed in a stereotaxic frame (David Kopf Instruments). The remainder of the protocol is identical to the method immediately above for Evaluation of Compound Potency 1 Hour Following Oral Administration. […] However, the unbound plasma and brain concentrations measured 24 hours following the administration of the 10 mg/kg dose, are not different from the exposures associated with the non-efficacious 0.1 mg/kg dose at one hour. […]"}, "[2]": {"experiment": "Fraction unbound in plasma and brain (FUplasma, FUbrain)"}, "[3]": {"system": "simulated driving performance", "experiment": "Computer-based driving simulator study in healthy volunteers"}, "[4]": {"settings": "brain, 10 mg/kg po, read-out: Unbound Brain Cone (mean ± SD; n = 4)"}, "[5]": {"settings": "plasma, 10 mg/kg po, read-out: Unbound Plasma Cone (mean ± SD; n = 4)"}, "[6]": {"settings": "10 mg/kg po, 48 hrs post-dose, BQL = below quantitation level"}}, "note": "“Also recorded” adds a separate entry of the source. Like-named read-outs stand apart in the source and are kept apart here."}
{"smiles": "CN1CCC(C(=O)c2cccc(NC(=O)c3c(F)cc(F)cc3F)n2)CC1", "note": "[Lasmiditan, 2,4,6-trifluoro-N-[6-(1-methyl-piperidin-4-ylcarbonyl)-pyridin-2-yl]-benzamide]", "values": [{"measurement": "recurrence rates of migraine", "setting": "patients with migraine; 50-mg to 200-mg dose range, 2-hour to 24-hour time frame after dosing", "result": "similarly low"}, {"measurement": "efficacy on 2-hour pain freedom, dose relation", "setting": "patients with migraine; completed single-attack Phase 3 studies", "result": "dose related"}, {"measurement": "TEAEs, 200 mg vs 100 mg", "setting": "patients with migraine; studies of lasmiditan for acute treatment of migraine", "result": "numerically more TEAEs"}, {"measurement": "concentration at 1 h", "setting": "[1]; brain, 0.1 mg/kg po, read-out: Unbound Brain Cone (mean ± SD; n = 4)", "result": "0.002 ± 0.0001", "unit": "µM"}, {"measurement": "concentration at 1 h", "setting": "[1]; brain, 1 mg/kg po, read-out: Unbound Brain Cone (mean ± SD; n = 4)", "result": "0.0166 ± 0.0036", "unit": "µM"}, {"measurement": "concentration at 1 h", "setting": "[1]; [4]", "result": "0.242 ± 0.095", "unit": "µM"}, {"measurement": "concentration at 24 h", "setting": "[1]; [4]", "result": "0.0021 ± 0.0009", "unit": "µM"}, {"measurement": "concentration at 1 h", "setting": "[1]; plasma, 0.1 mg/kg po, read-out: Unbound Plasma Cone (mean ± SD; n = 4)", "result": "0.006 ± 0.0019", "unit": "µM"}, {"measurement": "concentration at 1 h", "setting": "[1]; plasma, 1 mg/kg po, read-out: Unbound Plasma Cone (mean ± SD; n = 4)", "result": "0.067 ± 0.0198", "unit": "µM"}, {"measurement": "concentration at 1 h", "setting": "[1]; [5]", "result": "0.767 ± 0.254", "unit": "µM"}, {"measurement": "concentration at 24 h", "setting": "[1]; [5]", "result": "0.0062 ± 0.0025", "unit": "µM"}, {"measurement": "Unbound Brain Cone (mean ± SD; n = 4)", "setting": "[1]; [6]", "result": "BQL"}, {"measurement": "Unbound Plasma Cone (mean ± SD; n = 4)", "setting": "[1]; [6]", "result": "BQL"}, {"measurement": "FUbrain", "setting": "[2]; brain", "result": "FUbrain = 0.117,"}, {"measurement": "FUplasma", "setting": "[2]; plasma", "result": "FUplasma = 0.459,"}, {"measurement": "time by which impaired simulated driving performance resolved", "setting": "[3]; after dosing", "result": "≤ 8", "unit": "h"}, {"measurement": "driving impairment / simulated driving performance", "setting": "[3]; all doses, acute treatment", "result": "impair simulated driving performance in a dose-dependent manner; also recorded: associated with driving impairment"}]}
